{
  "source": "patent US20130344501A1",
  "about": "“METHODS FOR PRODUCING THREE-DIMENSIONAL PHYSIOLOGICALLY RELEVANT IMMUNE TISSUE SYSTEMS UNDER LOW FLUID SHEAR CONDITIONS” (priority 2010, published 2013)",
  "key": {"ICAM-1 on U937 cells": {"tested_on": "ICAM-1 on U937 cells", "experiment": "ICAM-1 labeling of PMA-differentiated U937 macrophages, confocal laser scanning microscopy", "type": "cell-based, human", "conditions": "U937 monocytes exposed to 10^−8M PMA for 48 hours; monocytes alone stained weakly positive", "experimental": "(§1) To obtain differentiated macrophages, U937 monocytes were exposed to 10^−8M PMA (originating from a 10^−3M stock in DMSO) (Sigma-Aldrich) for 48 hours. Exposure of monocytes to phorbol esters induces morphological, physiological and molecular characteristics of terminally differentiated macrophages (Rovera et al., 1979, Prieto et al., 1994). For CLSM staining purposes, monocytes were differentiated with PMA and A549 cells were grown in 6-well plates containing sterile coverslips. For CLSM staining of undifferentiated U937, cytodex-3 beads (5 mg/ml) were added to the culture medium, allowing adhesion of U937 to the beads and facilitation of the staining procedure.\nThe antibodies used for CLSM imaging in the present study were from mouse origin and targeted the human CD45 (Abcam), ICAM-1 (Abcam), MUC5AC (Invitrogen), ZO-1 (Invitrogen) and β-catenin (Chemicon). All primary antibodies were used in a dilution of 1:50. ICAM-1 was the only directly labeled antibody used for CLSM staining and was conjugated with phycoerythrin (PE). […]\nOptical sections of the three-dimensional aggregates and monolayers were obtained using a Zeiss LSM 510 Duo laser scanning microscope equipped with detectors and filter sets for monitoring emissions of the selected fluorophores. Images were acquired using a Plan-Neofluar 40×/1.3 oil DIC objective and were analyzed with the Zeiss LSM software package. […]"}, "U937 cells": {"tested_on": "U937 cells", "experiment": "Phagocytosis of 2 μm fluorescent beads by PMA-differentiated U937 macrophages", "type": "cell-based, human", "conditions": "U937 monocytes exposed to 10^−8M PMA for 48 hours; undifferentiated monocytes could not phagocytose", "experimental": "as §1\nThe phagocytosis activity of monocytes and macrophages cultured alone or co-cultured with A549 cells in three-dimensional was assessed based on the uptake of bacterial-sized 2 μm fluorescent […] beads (Fluoresbrite plain YG, Polysciences). The phagocytosis assay was performed as previously described (Gao et al., 2010)."}},
  "data": [
    {"smiles": "CCCCCCCCCCCCCC(=O)O[C@@H]1[C@@H](C)[C@@]2(O)[C@@H](C=C(CO)C[C@]3(O)C(=O)C(C)=C[C@@H]23)[C@@H]2C(C)(C)[C@]12OC(C)=O", "note": "[PMA, phorbol 12-myristate 13-acetate]", "values": [
      {"measurement": "ICAM-1 labeling of differentiated macrophages", "setting": "ICAM-1 on U937 cells", "result": "strong ICAM-1 labeling"},
      {"measurement": "phagocytosis of 2 μm fluorescent beads", "setting": "U937 cells", "result": "engulfment of one-to-multiple beads"}
    ]}
  ]
}
